Laboratory results: patent publication US6982142B2, “Methods for screening therapeutically effective agents” (John Wayne Cancer Institute, priority 1997, dated 2006)
Structures can show the parent of a compound that is named as a salt.

Tests used:
MCF-7-AdrR cells [1] = experiment: Cell radiolabeling and TLC/LSC analysis of ceramide, glucosylceramide and sphingomyelin in MDR breast cancer cells; type: cell-based, human; conditions: for ceramide level, increase over control: adriamycin 2.5, PSC 833 5.0 μM, tamoxifen 5.0 μM alone or combined, 24 h, [3H]palmitic acid
Protocol: (§1) Cells. Experiments were conducted using the human MDR breast cancer cell line, MCF-7 AdrR (adriamycin resistant) provided by Drs. Kenneth H. Cowan and Merrill E. Goldsmith, National Cancer Institute. Cells were grown in RPMI-1640 medium containing 10% FBS (fetal bovine serum) and antibiotics as previously described (Lavie, 1997) and cultures were maintained in a humidified 6.5% CO2 atmosphere incubator. Trypsin (0.05%) and EDTA (0.5 mM) were used for subculture. Plastic tissue cultureware, was from Costar (96-well plates) and Corning (6-well plates, 6-cm dishes, T-75 flasks). Limited experiments were conducted using the human MDR epidermoid carcinoma cell line, KBV-1, provided by Dr. Michael M. Gottesman, National Cancer Institute. Cells were maintained as described (Lavie, 1996). Vinblastine was eliminated from the culture medium during the experiments.
Cell Radiolabeling and Lipid/Glycolipid Analysis. To follow lipid metabolism, cells were grown in the presence of tritiated ceramide precursors, L-[^3H]serine (20 Ci/mmol) (American Radiolabeled Chemicals, Inc., St. Louis), and [9, 10-^3H]palmitic acid (50 Ci/mmol) (DuPont NEN). Labeling media were prepared by adding microliter amounts of tritiated compounds (supplied in ethanol or sterile water) to medium containing only 5% FBS. After radiolabeling, 0.1 ml aliquots of medium were removed and analyzed by LSC (Lavie, 1997), in order to determine cellular uptake of the tritiated compounds. Cell monolayers were then rinsed twice with cold phosphate-buffered saline. Ice cold methanol containing 2% acetic acid was added, and cells were scraped free of the substratum (plastic scraper) for lipid extraction using chloroform and water in 1-dram glass vials as described (Lavie, 1997; Lavie, 1996; Bligh and Dyer, 1959). After centrifugation, the resulting organic lower phase of the biphasic extraction was withdrawn, transferred to a glass vial, and evaporated to dryness under a stream of nitrogen.
Radioactivity in glucosylceramide was analyzed by TLC resolution of total lipids (Silica Gel G) using a solvent system containing chloroform/methanol/ammonium hydroxide (80:20:2, v/v/v). Migration of glucosylceramide on TLC was compared with that of commercial standard (glucocerebrosides, Gaucher's spleen, Matreya, Inc., Pleasant Gap, Pa.), and lipid spots, after iodine vapor visualization, were scraped for tritium quantitation by LSC (Lavie, 1997; Lavie, 1996). […] Ceramide and sphingomyelin commercial standards (brain-derived) were from Avanti Polar Lipids, Alabaster, Ala. After iodine visualization of lipids, areas of the chromatogram corresponding to ceramide and sphingomyelin were scraped into minivials containing 0.5 ml water followed by 4.5 ml EcoLume (ICN, Costa Mesa, Calif.), and samples were analyzed for tritium by liquid scintillation spectrometry. Alternative analysis of ceramide consisted of subjecting an aliquot of the total cell lipid extract to mild alkaline hydrolysis (0.1 N KOH in methanol, 1 h at 37° C.) followed by re-extraction (Lavie, 1997). […] The same can also be done without tritium by simply applying 100-200 μg total cell lipid to TLC plates and developing them in the appropriate solvent, then spraying them with 30% H2SO4, charring the plate in an oven at 180° C. for 20 min, and measuring lipid mass by densitometry.

MCF-7-wt cells = experiment: Cytotoxicity assay (Promega) in chemosensitive wild-type breast cancer cells; type: cell-based, human; conditions: PSC 833 10 μM, four days
KB-V-1 cells [2] = experiment: Ceramide and sphingomyelin metabolism ([3H]palmitic acid labeling) in vinblastine resistant epidermoid carcinoma cells; type: cell-based, human; conditions: PSC 833 5.0 μM
Protocol: as §1
Cell Radiolabeling and Lipid/Glycolipid Analysis. To follow lipid metabolism, cells were grown in the presence of tritiated ceramide precursors, L-[^3H]serine (20 Ci/mmol) (American Radiolabeled Chemicals, Inc., St. Louis), and [9, 10-^3H]palmitic acid (50 Ci/mmol) (DuPont NEN). […] After radiolabeling, 0.1 ml aliquots of medium were removed and analyzed by LSC (Lavie, 1997), in order to determine cellular uptake of the tritiated compounds. […]
Radioactivity in glucosylceramide was analyzed by TLC resolution of total lipids (Silica Gel G) using a solvent system containing chloroform/methanol/ammonium hydroxide (80:20:2, v/v/v). Migration of glucosylceramide on TLC was compared with that of commercial standard (glucocerebrosides, Gaucher's spleen, Matreya, Inc., Pleasant Gap, Pa.), and lipid spots, after iodine vapor visualization, were scraped for tritium quantitation by LSC (Lavie, 1997; Lavie, 1996). […] After iodine visualization of lipids, areas of the chromatogram corresponding to ceramide and sphingomyelin were scraped into minivials containing 0.5 ml water followed by 4.5 ml EcoLume (ICN, Costa Mesa, Calif.), and samples were analyzed for tritium by liquid scintillation spectrometry. […]

KB-V-1 cells [3] = experiment: Cytotoxicity in vinblastine resistant epidermoid carcinoma cells (estimated, not measured); type: cell-based, human; conditions: PSC 833 5.0 μM, 24 h
Protocol: To determine whether the influence of PSC 833 on ceramide metabolism was restricted to certain cell types, a vinblastine resistant epidermoid carcinoma, KB-V-1, was tested. In KB-V-1 cells exposed to 5.0 μM PSC 833 for 24 h, cellular levels of tritiated ceramide ([^3H]palmitic acid labeling) increased 8.7-fold over untreated cells. This is 4-fold higher than the ceramide increase elicited by PSC 833 in MCF-7-AdrR cells (FIG. 7). The increase in ceramide in KB-V-1 cells was accompanied by cytotoxicity, which while not measured was estimated at 80% cell death. Additionally, the PSC 833-induced increase in [^3H]ceramide was not accompanied by decreases in [^3H]sphingomyelin, but rather a slight increase in radiolabeled sphingomyelin (33% over the control).

MCF-7-AdrR cells [4] = system: MCF-7-AdrR cells
MCF-7 wild-type cells [5] = experiment: Ceramide and sphingomyelin formation ([3H]palmitic acid, TLC) in wild-type breast cancer cells; type: cell-based, human; conditions: doxorubicin 1.7 μM
Protocol: (§2) The effect of anthracyclines such as doxorubicin on ceramide formation is illustrated in FIG. 10A. Cells were seeded in 6-well plates (80,000 cells/well) in 2.0 ml medium containing 5% FBS. After 2 days of growth, cells were given doxorubicin (1.7 μM) and [^3H]palmitic acid (2.0 μCi/well) for 72 hr. Total cell lipids were extracted (Bligh and Dyer, 1959) and analyzed by applying 150,000 cpm (for ceramide analysis) and 50,000 cpm (for sphingomyelin analysis) from each sample to the origin of a Silica Gel G TLC plate and resolving [^3H]ceramide and [^3H]sphingomyelin as described in the Methods section. […] FIG. 10A illustrates that exposure of wild-type human breast cancer cells to doxorubicin (1.7 μM) caused, after 72 hours, a 6-fold increase in ceramide. […] Control and doxorubicin treated (1.7 μM) cells were grown in 10 cm culture dishes for 72 hr. Cells were harvested by trypsin-EDTA, centrifuged then incubated with digestion buffer (100 mM NaCl, 25 mM EDTA, 10 mM Tris-HCI, 0.5% SDS, 0.3 mg/ml Proteinase K, pH 8.0) at 45° C. for 18 hrs. DNA was extracted with phenol/chloroform/isoamyl alcohol (25:24:1, v/v/v) and precipitated in 1/3 volume 7.5 M ammonium acetate and 2 volume2 100% ethanol at −20° C. overnight. […] Re-extracted DNA (15 μg) was analyzed by electrophoresis on a 2% agarose gel in TAE buffer (40 mM Tris-acetate, 1.0 mM EDTA, pH 8.3). […]

MCF-7 wild-type cells [6] = experiment: Apoptosis by oligonucleosomal DNA fragmentation (gel electrophoresis) in wild-type cells; type: cell-based, human; conditions: doxorubicin 1.7 μM, 72 hr
Protocol: as §2

MCF-7 cells [7] = experiment: cells; type: cell-based; conditions: Homo sapiens, MCF7, 96 h, read-out: EC50 (cytotoxicity)
Protocol: Cytotoxicity Assay. The assay was performed as previously described (Lavie, 1997). […] Cultures were incubated at 37° C. for 24 hr before addition of drug. Drugs were added in FBS-free medium (0.1 ml), and cells were cultured at 37° C. for the indicated periods. Drug cytotoxicity was determined using the Promega 96 Aqueous cell proliferation assay kit. Absorbance at 490 nm was recorded using an ELISA reader (Molecular Devices, San Diego, Calif.).
Adriamycin was used to assess the influence of GCS transfection on cellular response to anthracyclines. After pretreatment with doxycycline for two days, MCF-7/GCS cells were incubated with increasing concentrations of adriamycin for four days. […] It was observed that MCF-7/GCS cells were resistant to ceramide toxicity as well. […] However, the EC50 in the TC group was nearly identical with that of MCF-7 cells, there being no statistical difference between the two groups (FIG. 14C).

MCF-7 cells [8] = experiment: Analysis of ceramide and glucosylceramide ([3H]palmitic acid, TLC) in parental cells; type: cell-based, human; conditions: adriamycin
Protocol: (§3) Analysis of Ceramide and Glucosylceramide. Analyses were performed as previously described (Lavie, 1997). Cellular lipids were radiolabeled by incubating cells with [^3H]palmitic acid (2.5 μCi/ml culture medium) for 24 hr. After removal of medium, cells were rinsed twice with PBS (pH 7.4), and lipids were extracted (Lavie, 1997). After nitrogen evaporation of solvents, total lipids were resuspended in 100 μl of chloroform /methanol (1:1, v/v), and aliquots were applied to TLC plates. Ceramide was resolved using solvent system I, which contained chloroform/acetic acid (90:10, v/v). […] Commercial lipid standards were co-chromatographed. After development, lipids were visualized by iodine vapor staining, and areas of interest were scraped into 0.5 ml water. EcoLume counting fluid (4.5 ml) was added, the samples were mixed, and radioactivity was quantitated by liquid scintillation spectrometry.
(§4) To further define the mechanism of drug resistance in MCF-7/GCS cells, cells were challenged with adriamycin and the metabolism of ceramide was evaluated (FIGS. 16A-16B). […] After 24 and 48 hr with adriamycin, GC levels in the GCS-transfected cells increased 1.4- and 2.1-fold, respectively.

MCF-7/GCS cells = experiment: Analysis of ceramide and glucosylceramide ([3H]palmitic acid, TLC) in GCS-transfected cells; type: cell-based, human; conditions: adriamycin
Protocol: as §3, §4

MCF-7-AdrR cells [9] = experiment: cells; conditions: Homo sapiens, 72 h, read-out: growth inhibition
[10] = increasing concentration, 60 min then [3H]palmitic acid for 23 h

C/C=C/C[C@@H](C)C(=O)[C@H]1C(=O)N[C@@H](C(C)C)C(=O)N(C)CC(=O)N(C)[C@@H](CC(C)C)C(=O)N[C@@H](C(C)C)C(=O)N(C)[C@@H](CC(C)C)C(=O)N[C@@H](C)C(=O)N[C@H](C)C(=O)N(C)[C@@H](CC(C)C)C(=O)N(C)[C@@H](CC(C)C)C(=O)N(C)[C@@H](C(C)C)C(=O)N1C [PSC 833, ([3′-Keto-Bmt1]-Val2)-cyclosporine]
concentration at which activation of glucosylceramide formation was apparent (MCF-7-AdrR cells [1]; 60 min then [3H]palmitic acid for 23 h): 0.1 µM
glucosylceramide level (TLC autoradiography) (MCF-7-AdrR cells [1]; PSC 833 2.5 μM, overnight, [3H]serine): increased markedly
sphingomyelin, % of control (MCF-7-AdrR cells [1]; PSC 833 5.0 μM, 2 h): 150 % of control
time at which activation of cellular ceramide formation was discernible (MCF-7-AdrR cells [1]; PSC 833 5.0 μM, exposure 15 min-4 h): 30 min
ceramide level, increase over control (MCF-7-AdrR cells [1]): 4.8 fold
cellular ceramide formation, dose-response (MCF-7-AdrR cells [1]; [10]): elicited an increase in cellular ceramide formation
glucosylceramide formation, dose-response (MCF-7-AdrR cells [1]; [10]): resulted in glucosylceramide synthesis
reduction in cell survival (MCF-7-wt cells): 80%
ceramide increase in KB-V-1 relative to increase in MCF-7-AdrR cells (KB-V-1 cells [2]): 4 fold
radiolabeled sphingomyelin, increase over the control (KB-V-1 cells [2]; 24 h): 33%
tritiated ceramide level, increase over untreated cells (KB-V-1 cells [2]; 24 h): 8.7 fold
cell death (not measured, estimated) (KB-V-1 cells [3]): ~80%
cell kill (MCF-7-AdrR cells [4]; PSC 833 0.5 μM, 5-days): 10%
reduction in cell survival (MCF-7-AdrR cells [4]; PSC 833 10 μM, four days): 35%
cell viability (MCF-7-AdrR cells [4]; adriamycin 2.5 μM, PSC 833 5.0, tamoxifen 5.0 μM alone or combined, 3-days): without influence

COc1cccc2c1C(=O)c1c(O)c3c(c(O)c1C2=O)C[C@@](O)(C(=O)CO)C[C@@H]3O[C@H]1C[C@H](N)[C@H](O)[C@H](C)O1 [adriamycin, doxorubicin hydrochloride]
ceramide level, increase over control (MCF-7-AdrR cells [1]): not influenced
ceramide increase (MCF-7 wild-type cells [5]; 72 hours): 6 fold
sphingomyelin production (MCF-7 wild-type cells [5]; 72 hr): increased only slightly
apoptosis (DNA laddering) (MCF-7 wild-type cells [6]): gave rise to apoptosis
EC50 (MCF-7 cells [7]): 0.37 ± 0.01 µM
GC levels (MCF-7 cells [8]; 24 and 48 hr): little impact
ceramide level increase (MCF-7 cells [8]; 24 hr): 3.4 fold
ceramide level increase (MCF-7 cells [8]; 48 hr): 3 fold
GC level increase (MCF-7/GCS cells; 24 hr): 1.4 fold
ceramide level increase (MCF-7/GCS cells; 24 hr): 1.4 fold
GC level increase (MCF-7/GCS cells; 48 hr): 2.1 fold
ceramide level increase (MCF-7/GCS cells; 48 hr): 1.2 fold
cell survival (MCF-7-AdrR cells [4]; adriamycin 0.2 μM alone, 5-days): 90%
cell survival, % of control (MCF-7-AdrR cells [4]; adriamycin 0.1-1.0 μM, 5-days): 80-95 % of control
inhibition at 2.5 µM (MCF-7-AdrR cells [9]): 23%
